{"source": "patent US9802962B2", "about": "“Tricyclic pyrone compounds reduce amyloid beta aggregates” (priority 2013, dated 2017)", "key": {"[1]": {"test_system": "rat hippocampal slices", "test": "Long-term potentiation (LTP) in rat hippocampal slices", "assay_type": "cell-based", "procedure": "FIGS. 2A-2B. Effects of TP70 on rat hippocampal LTP. FIG. 2A. Top panels show superimposed field excitatory post-synaptic potentials (EPSPs) taken from baseline and 45 min following high frequency stimulation (HFS, four 1-s trains of 100 pulses of 0.2 ms delivered at 100 Hz, inter-train interval of 20 s) of the Schaffer collateral-CA1 synapses. FIG. 2B. […] In Control HFS induced LTP. AβO blocked LTP. TP70 (1 μM) restored LTP in the presence of AβO. TP70 alone enhanced LTP.\nWe further investigated effects of TP70 on basal neurotransmission and synaptic plasticity, for example long-term potentiation (LTP) in rat hippocampal slices as previously described (Villeda, et al., Nature, 2011, 477:90-94; Xie, et al., Pflugers Arch, 1994, 427:481-486)."}, "[2]": {"test": "Plasma PK and bioavailability, iv versus po, in mice", "assay_type": "in vivo", "procedure": "FIG. 5. Plasma concentrations of TP70 following iv or po administration (25 mg/Kg; iv, n=3 in each timepoint; or po, n=3 in each timepoint). Plasma concentrations were plotted against time post-dosing.\nSince the drug will ultimately be administered orally, the bioavailability (F) of TP70 was determined in mice (male C57BL/6, 4 to 6 months old, n=3/group). Each mouse was treated with TP 70 (25 mg/kg). The drug was initially dissolved in pure dimethyl sulfoxide (DMSO) and then diluted with 0.5% hydroxypropylcellulose (HPC) in distilled water in a final solution containing 2% DMSO. At different time points about 50 μl plasma was sampled via tail cut for blood collection with a tube treated with ethylenediaminetetraacetic acid (EDTA). The compound was measured using HPLC/mass spectrometer. The maximal plasma concentration following iv administration is 16.6±6.1 μg/ml (equivalent to 42 μM) and po is 6.9±0.17 μg/ml (equivalent to 17 μM)."}, "[3]": {"test_system": "wildtype mice (C57BL/6)", "test": "Rotarod performance in wildtype mice", "assay_type": "in vivo", "conditions": "50 mg/kg ip, one hour after dosing, Day 5", "procedure": "FIG. 9. Effects of TP70 on mouse rotarod performance. The mice were trained three times every day for 4 days to reach its maximal performance using SmartCage Rotarod device (with a setting of a constant speed at 15 […] per minute).\nTo further assess side effects on motor activity, and particularly balance and muscle coordination, rotarod performance was conducted by the wildtype mice (C57BL/6 female, 2 months old, n=7). Vehicle injection (i.p) was given after the Day 4 training to assess any effects of vehicle or injection per se. On Day 5, one hour after TP70 (50 mg/kg, ip) the mice were subject to the rotarod test."}, "[4]": {"test_system": "APP/PS1 mice", "test": "SmartCage homecage activity and locomotion in APP/PS1 mice", "assay_type": "in vivo", "conditions": "Day 7, TP70 in drinking water, treatment versus control group", "procedure": "FIGS. 8A-8D. Effects of TP70 on homecage activity and locomotion in homecage monitored using the SmartCage™ system A. Active time in each time block during 24 hours. B. Travel distance in each time block during 24 hours. C. Travel speed in each time block during 24 hours. D. Rearing activity in each time block during 24 hours. The gray shadow indicates dark phase of a 12:12 light/dark cycle.\nThe validated SmartCage™ system that enables automated, objective, quantitative and long-term evaluation of neuropsychological endpoints at the animal's home cages (Flores, et al., IEEE Trans Biomed Eng, 2007, 54:225-233; Xiong, et al., Stroke, 2011, 42:2026-2032; Carter, et al., Nat Neurosci, 2010, 13:1526-1533; Khroyan, et al., Clin Exp Pharmacol Physiol, 2012, 39:614-622) was used to complement other special individual learning and memory tests (Shineman, et al., Alzheimers Res Ther, 2011, 3:28; Hamann, et al., Neuropsychologia, 2002, 40:1187-1195; Aultman, et al., Psychopharmacology (Berl), 2001, 153:353-364; Ashe, K H, J Alzheimers Dis, 2006, 9:123-126). […] Homecage activity and locomotion were assessed on Day 7 after the treatment and the blood samples were collected from each mouse after the assessment of general behavior. […]"}}, "note": "“Also recorded” adds a separate entry of the source."}
{"compound": "Cc1cc2c(c(=O)o1)C=C1CCC(C(C)CNCc3ccc(O)cc3)CC1O2", "note": "(stereo not shown) [TP70]", "values": [{"measurement": "concentration required for enhancing synaptic activity and LTP restoration", "setting": "[1]", "value": "0.1 to 3", "unit": "µM"}, {"measurement": "LTP in the presence of AβO", "setting": "[1]; 1 μM, perfused 20 min prior to co-application of AβO", "value": "restored LTP; also recorded: restored LTP to the non-AβO-treated level"}, {"measurement": "basal synaptic activity", "setting": "[1]; compound alone", "value": "without affecting basal synaptic activity"}, {"measurement": "magnitude of LTP, compound alone", "setting": "[1]; without AβO", "value": "significantly enhanced the magnitude of LTP"}, {"measurement": "Average concentration of TP70 in plasma", "setting": "[2]; iv route, 5 min", "value": "16.6 ± 6.1", "unit": "mg/L"}, {"measurement": "Average concentration of TP70 in plasma", "setting": "[2]; iv route, 15 min", "value": "10.2 ± 4", "unit": "mg/L"}, {"measurement": "Average concentration of TP70 in plasma", "setting": "[2]; iv route, 30 min", "value": "8.2 ± 3.5", "unit": "mg/L"}, {"measurement": "Average concentration of TP70 in plasma", "setting": "[2]; iv route, 60 min", "value": "3.7 ± 0.8", "unit": "mg/L"}, {"measurement": "Average concentration of TP70 in plasma", "setting": "[2]; iv route, 120 min", "value": "2.02 ± 0.6", "unit": "mg/L"}, {"measurement": "Average concentration of TP70 in plasma", "setting": "[2]; iv route, 240 min", "value": "1.8 ± 0.5", "unit": "mg/L"}, {"measurement": "Average concentration of TP70 in plasma", "setting": "[2]; iv route, 360 min", "value": "0.9 ± 0.3", "unit": "mg/L"}, {"measurement": "F", "setting": "[2]; iv route, fraction", "value": 1}, {"measurement": "Area under the curve (AUC)", "setting": "[2]; iv, 25 mg/kg", "value": 989}, {"measurement": "maximal plasma concentration", "setting": "[2]; iv, 25 mg/kg", "value": "16.6 ± 6.1", "unit": "µg/mL"}, {"measurement": "maximal plasma concentration (equivalent)", "setting": "[2]; iv, 25 mg/kg", "value": 42, "unit": "µM"}, {"measurement": "t1/2", "setting": "[2]; iv, 25 mg/kg", "value": "around 30 min"}, {"measurement": "Average concentration of TP70 in plasma", "setting": "[2]; oral gavage (po) route, 15 min", "value": "2.8 ± 0.09", "unit": "mg/L"}, {"measurement": "Average concentration of TP70 in plasma", "setting": "[2]; oral gavage (po) route, 30 min", "value": "3.9 ± 0.14", "unit": "mg/L"}, {"measurement": "Average concentration of TP70 in plasma", "setting": "[2]; oral gavage (po) route, 60 min", "value": "6.9 ± 0.17", "unit": "mg/L"}, {"measurement": "Average concentration of TP70 in plasma", "setting": "[2]; oral gavage (po) route, 120 min", "value": "4.2 ± 0.19", "unit": "mg/L"}, {"measurement": "Average concentration of TP70 in plasma", "setting": "[2]; oral gavage (po) route, 240 min", "value": "2.4 ± 1.37", "unit": "mg/L"}, {"measurement": "Average concentration of TP70 in plasma", "setting": "[2]; oral gavage (po) route, 360 min", "value": "1.2 ± 0.23", "unit": "mg/L"}, {"measurement": "bioavailability (F)", "setting": "[2]; po versus iv, 25 mg/kg", "value": 68, "unit": "%"}, {"measurement": "Area under the curve (AUC)", "setting": "[2]; po, 25 mg/kg", "value": 678}, {"measurement": "maximal plasma concentration", "setting": "[2]; po, 25 mg/kg", "value": "6.9 ± 0.17", "unit": "µg/mL"}, {"measurement": "maximal plasma concentration (equivalent)", "setting": "[2]; po, 25 mg/kg", "value": 17, "unit": "µM"}, {"measurement": "rotarod performance", "setting": "[3]", "value": "insignificant effects"}, {"measurement": "homecage activity and locomotion", "setting": "[4]", "value": "no significant differences"}]}
